Experimental findings from ChEMBL document CHEMBL1287695, “Cholesterol-derived novel anti-apoptotic agents on the structural basis of ginsenoside Rk1” (Bioorg Med Chem Lett, 2010) are described below.

The structures appear in SMILES notation. The source made the active and inactive calls. The calls are words filed in the database; no cut-off is given here.

Common to all, as to format: functional, cell-based
What all share (details): Homo sapiens

In test [1] the test system is HUVEC. Kind of test: Antiapoptotic activity against HUVEC cells at 5 ug/ml after 24 hrs by MTT calorimetric assay.
The test system of test [2] is HUVEC. Description: Antiapoptotic activity against HUVEC cells at 10 ug/ml after 24 hrs by MTT calorimetric assay.
In test [3] the test system is HUVEC. Kind of test: Antiapoptotic activity against HUVEC cells at 10 ug/ml after 48 hrs by MTT calorimetric assay.
Test [4] concerns HUVEC. Description: Antiapoptotic activity against HUVEC cells at 5 ug/ml after 48 hrs by MTT calorimetric assay.
Another test deals with HREC. Description: Antiapoptotic activity against HREC cells assessed as cell viability after 48 hrs.
Test [5] has as its system HUVEC. Kind of test: Antiapoptotic activity against HUVEC cells assessed as inhibition of DNA condensation and fragmentation after 48 hrs by DAPI staining.
For test [6], the system named is HUVEC. Kind of test: Antiapoptotic activity against HUVEC cells assessed as inhibition of DNA condensation and fragmentation after 48 hrs by TUNEL assay.

Regarding `CC(C)CCC[C@@H](C)[C@H]1CC[C@H]2[C@@H]3CC=C4C[C@@H](O[C@H]5C=C[C@H](O)[C@@H](CO)O5)CC[C@]4(C)[C@H]3CC[C@]12C`, the result with HUVEC [1], with HUVEC [2], in the test on HUVEC [3] and with HUVEC [4] was inactive.

As to `COCCOCO[C@H]1CC[C@@]2(C)C(=CC[C@H]3[C@@H]4CC[C@H]([C@H](C)CCCC(C)C)[C@@]4(C)CC[C@@H]32)C1`, the outcome in the test with HUVEC [1] and in the test with HUVEC [4] was Active.

For `COC[C@H]1O[C@@H](O[C@H]2CC[C@@]3(C)C(=CC[C@H]4[C@@H]5CC[C@H]([C@H](C)CCCC(C)C)[C@@]5(C)CC[C@@H]43)C2)C[C@@H](OC)[C@@H]1OC`, the result in the test on HUVEC [1], with HUVEC [2], with HUVEC [3] and in the test on HUVEC [4] was inactive.

For `C=CCO[C@H]1CC[C@@]2(C)C(=CC[C@H]3[C@@H]4CC[C@H]([C@H](C)CCCC(C)C)[C@@]4(C)CC[C@@H]32)C1`, the result in the test with HUVEC [1] and in the test with HUVEC [4] was Active.

Take `CC(C)CCC[C@@H](C)[C@H]1CC[C@H]2[C@@H]3CC=C4C[C@@H](O[C@H]5C[C@@H](O)[C@H](O)[C@@H](CO)O5)CC[C@]4(C)[C@H]3CC[C@]12C`: the result with HUVEC [1], with HUVEC [2], in the test with HUVEC [3] and with HUVEC [4] was Active.

Regarding `CC(C)CCC[C@@H](C)[C@H]1CC[C@H]2[C@@H]3CC=C4C[C@@H](Oc5ccc6ccccc6c5)CC[C@]4(C)[C@H]3CC[C@]12C`, the outcome in the test on HUVEC [1] and in the test with HUVEC [4] was Active.

`CC(C)CCC[C@@H](C)[C@H]1CC[C@H]2[C@@H]3CC=C4C[C@@H](O[C@@H]5O[C@H](CO)[C@@H](O)[C@H](O)[C@H]5O)CC[C@]4(C)[C@H]3CC[C@]12C`: the outcome in the test with HUVEC [1], in the test with HUVEC [2], in the test with HUVEC [3] and with HUVEC [4] was inactive.

Regarding `CC(C)CCC[C@@H](C)[C@H]1CC[C@H]2[C@@H]3CC=C4C[C@@H](O[C@H]5CCCCO5)CC[C@]4(C)[C@H]3CC[C@]12C`, the result in the test on HUVEC [1], in the test with HUVEC [2], in the test on HREC, with HUVEC [5], with HUVEC [3] and in the test on HUVEC [6] was Active. In addition, the result with HUVEC [4] was Active.

As to `COC[C@H]1O[C@@H](O[C@H]2CC[C@@]3(C)C(=CC[C@H]4[C@@H]5CC[C@H]([C@H](C)CCCC(C)C)[C@@]5(C)CC[C@@H]43)C2)C=C[C@@H]1OC`, the outcome with HUVEC [1], with HUVEC [2], in the test with HUVEC [3] and with HUVEC [4] was Active.

For the compound `C=C(CCC=C(C)C)[C@H]1CC[C@]2(C)[C@@H]1[C@H](O)C[C@@H]1[C@@]3(C)CC[C@H](O[C@@H]4O[C@H](CO)[C@@H](O)[C@H](O)[C@H]4O[C@@H]4O[C@H](CO)[C@@H](O)[C@H](O)[C@H]4O)C(C)(C)[C@@H]3CC[C@]12C`, the outcome in the test with HUVEC [1], in the test on HUVEC [2], in the test on HUVEC [3] and with HUVEC [4] was Active.

Take `CC(C)CCC[C@@H](C)[C@H]1CC[C@H]2[C@@H]3CC=C4C[C@@H](OC/C=C/CO)CC[C@]4(C)[C@H]3CC[C@]12C`: the result in the test on HUVEC [1] and in the test on HUVEC [4] was Active.

Regarding `CC(=O)OC[C@H]1O[C@@H](O[C@H]2CC[C@@]3(C)C(=CC[C@H]4[C@@H]5CC[C@H]([C@H](C)CCCC(C)C)[C@@]5(C)CC[C@@H]43)C2)C=C[C@@H]1OC(C)=O`, the result with HUVEC [1], in the test on HUVEC [2], in the test with HREC, in the test with HUVEC [5], with HUVEC [3] and with HUVEC [6] was Active. Besides, the outcome in the test on HUVEC [4] was Active.
